Experimental data: paper doi:10.1101/2020.10.07.312850v1 (bioRxiv, 2020)
Non-standard residues stand in square brackets, D forms with d. Residues, ends and D or L forms follow the SMILES beside them. *: point of attachment. Palmitoyl = CCCCCCCCCCCCCCCC(=O)*

Tests used:
[1] = chemical penetration enhancers, cited from earlier work; for Solubility: solvent and source not given; for LogP: source not given
[2] = Peptide human skin retention after 24 h; format: in vitro ADME
[3] = In vitro skin permeation testing, Franz type diffusion cells; format: in vitro ADME; conditions: 5% (w/v) in PG, human epidermis, Franz cell, 32 °C, 24 h
mushroom tyrosinase = conditions: cited from earlier work
human tyrosinase = conditions: cited from earlier work
melanin = conditions: 16 weeks of twice daily treatment; reference not given; cited from earlier work

In the case of CC12CCC(CC1=O)C2(C)C (centres unmarked) [Camphor], the Solubility [1] is listed as 1100 µg/mL and the LogP [1] is listed as 2.1 ± 0.3.
In the case of CC1CCC(C(C)C)C(O)C1 (centres unmarked) [Menthol], the Solubility [1] is listed as 1500 µg/mL and the LogP [1] is listed as 3.2 ± 0.2.
For CCCCCCCC/C=C\CCCCCCCC(=O)O [Oleic acid], the Solubility [1] is given as 2 µg/mL and the LogP [1] is given as 7.4 ± 0.2.
For CCCCCCCCCCCCCCCC(=O)N[C@@H](Cc1ccc(O)cc1)C(=O)N[C@@H](CCCNC(=N)N)C(=O)N[C@@H](CO)C(=O)N[C@@H](CCCNC(=N)N)C(=O)N[C@@H](CCCCN)C(=O)N[C@H](Cc1ccc(O)cc1)C(=O)N[C@@H](CO)C(=O)N[C@@H](CO)C(=O)N[C@@H](Cc1c[nH]c2ccccc12)C(=O)N[C@@H](Cc1ccc(O)cc1)C(N)=O [Palm-peptide] (Palmitoyl-YRSRK[dY]SSWY-NH2), the “Percentage of peptide retained inside skin (dose-normalised)” value ([2]; MN patch, human epidermis, 24 h) was under 0.1%, the “Highest peptide concentration in skin” value ([2]; estimated from skin retention after 24 h) was 9.0 µg/g and the “Effect of CPE on skin permeation” value ([3]; menthol) was “enhancing effect”. For the same molecule, the “Effect of CPE on skin permeation” value ([3]; oleic acid) was “inhibitory effects”.
For “YRSRKYSSWY [Native peptide, decapeptide-12]”, the “Competitive inhibition compared with hydroquinone” value (mushroom tyrosinase) is given as “stronger competitive inhibition effect”, the “Skin retention of peptide after 24 h” value ([2]; MN patch, human epidermis, Franz cell, 32 °C, 24 h, HPLC-UV 280 nm, triplicates) is given as “No peptides were detected” and the “Competitive inhibition compared with hydroquinone” value (human tyrosinase) is given as “stronger competitive inhibition effect”. For the same molecule, the “Efficacy in reducing content of melanin” value (melanin) was “more than 50%”.
